# Laboratory results reported in patent US20110183842A1, “Triazole and Imidazole Compounds, Use Thereof and Agents Containing Them” (BASF SE, priority 2008, published 2011).
# Test system: Phakopsora pachyrhizi
# Experiment: Curative activity against soybean rust caused by Phakopsora pachyrhizi (greenhouse, soybean seedlings)
# Type: in vivo
# Conditions: 300 ppm active compound, sprayed to runoff two days after inoculation of soybean seedlings, rated after a further 10 days; untreated plants 90% infected
# Method: The active compounds were prepared separately or together as a stock solution with 25 mg of active compound, which was made up to 10 ml with a mixture of acetone and/or DMSO and the emulsifier Uniperol® EL (wetting agent with emulsifying and dispersant action based on ethoxylated alkylphenols) in the volume ratio solvent/emulsifier of from 99 to 1. Subsequently, it was made up to 100 ml with water. This stock solution was diluted with the described solvent/emulsifier/water mixture to the active compound concentration indicated below. Alternatively to this, the active compounds were used as a commercially available ready-to-use solution and diluted with water to the active compound concentration indicated.
# Leaves of soybean seedlings grown in pots were inoculated with a spore suspension of soybean rust (Phakpsora pachyrhizi). The pots were then placed in a chamber of high atmospheric humidity (90 to 95%) and 23 to 27° C. for 24 hours. During this time, the spores germinated and the germ tubes penetrated into the leaf tissue. The infected plants were then cultivated further in a greenhouse at temperatures between 23 and 27° C. and 60 to 80% relative atmospheric humidity. After two days, the plants were sprayed to runoff point with the active compound solution described above at the active compound concentration indicated below. After the spray coating had dried on, the test plants were cultivated in a greenhouse at temperatures between 23 and 27° C. and 60 to 80% relative atmospheric humidity for a further 10 days. The extent of the rust fungus development on the leaves was then determined visually in % infection.
row,SMILES,"extent of the rust fungus development on the leaves, determined visually in % infection [%]"
1,"CC(C)(C)C(O)C(CCCCOc1c(F)cccc1Cl)n1ncnc1S (stereo not drawn) [I.A5, 8-(2-Chloro-6-fluorophenoxy)-4-(5-mercapto-[1,2,4]triazol-1-yl)-2,2-dimethyloctan-3-ol]",15
2,"CC(C)(C)C(O)C(CCCCOc1cc(F)ccc1F)n1ncnc1S (stereo not drawn) [I.A4, 8-(2,5-difluorophenoxy)-4-(5-mercapto-[1,2,4]triazol-1-yl)-2,2-dimethyloctan-3-ol]",15
3,"CC(C)(C)C(O)C(CCCCOc1ccccc1F)n1ncnc1S (stereo not drawn) [I.A1, 8-(2-fluorophenoxy)-4-(5-mercapto-[1,2,4]triazol-1-yl)-2,2-dimethyloctan-3-ol]",15
